# Experimental data: paper PMC9469097 (Frontiers in Pharmacology, 2022)
# Like-named read-outs stand apart in the source and are kept apart here.
# Key:
# [1] = target: CYP3A (Homo sapiens, UniProt P08684); assay: CYP3A-catalyzed midazolam 1′-hydroxylation in HLMs; type: biochemical; settings: for IC50 at 30 min: human
# Procedure: Following incubation for 30 min at 37 °C, and 200 μl ice-cold acetonitrile containing internal standard (IS, 90 ng/ml) was subsequently added to quench the oxidative reaction. The mixture was then centrifuged at 20,000 ×g, 4 °C for 20 min, and the supernatant was quantified by LC-MS/MS analysis as described in Supplementary Table S2.
# [2] = Stability tests for target pentacyclic triterpenoid acids
# [3] = target: CYP3A4 (Homo sapiens, UniProt P08684); assay: CYP3A4-catalyzed NEN 4-hydroxylation in HLMs (fluorescence-based assay)
# CYP3A4, sequence (P08684 whole entry): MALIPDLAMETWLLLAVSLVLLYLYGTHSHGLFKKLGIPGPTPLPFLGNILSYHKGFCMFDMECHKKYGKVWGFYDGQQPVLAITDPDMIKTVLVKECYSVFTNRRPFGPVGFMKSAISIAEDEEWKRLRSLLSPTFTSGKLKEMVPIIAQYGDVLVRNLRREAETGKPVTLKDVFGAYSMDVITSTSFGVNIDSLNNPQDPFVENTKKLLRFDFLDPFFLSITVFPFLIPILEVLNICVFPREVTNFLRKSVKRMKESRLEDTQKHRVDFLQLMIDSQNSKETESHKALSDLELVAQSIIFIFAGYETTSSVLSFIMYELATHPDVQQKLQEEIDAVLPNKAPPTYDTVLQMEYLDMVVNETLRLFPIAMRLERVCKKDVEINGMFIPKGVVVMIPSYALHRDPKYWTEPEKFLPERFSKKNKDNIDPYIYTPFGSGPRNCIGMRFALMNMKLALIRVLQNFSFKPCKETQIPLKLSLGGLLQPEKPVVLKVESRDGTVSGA
# Procedure: In brief, PBS (pH 7.4, 100 mM), herbal medicines (100 μg/ml, final concentration)/PTAs/solvent, NEN, G-6-P, G-6-PDH, MgCl2, and HLMs were added to the 96-well plate in turn, then the samples were vortexed and pre-incubated for 3 min at 37 °C. The oxidative reactions were initiated by adding β-NADP^+ to yield a final volume of 200 μl, then the formation rates of NEHN (hydroxylated metabolite of NEN) were continuously monitored for 30 min at 37 °C using a 96-well fluorescence microplate reader (SpectraMax® iD3, Molecular Devices, Austria). The percentage of organic solvent in all incubation is not over 1%.
# [4] = Tissue distribution of PTAs of Styrax in rats; settings: for exposure in rat plasma and rat liver: after single oral dose of Styrax (100 mg/kg)
# Procedure: Nine Male Sprague-Dawley rats (250–300 g) were purchased from Shanghai Sippe-Bk Lab Animal Co., Ltd. (Shanghai, China) and were fed in Experimental Animal Center of SHUTCM. […] The rats were fasted overnight before dosing but were free to drink water. Nine rats were randomly divided into three groups (1, 2, and 4 h). […] Blood samples were collected from the abdominal aorta, and the tissues (including the liver, duodenum, jejunum, ileum and colon) were removed rapidly and placed on ice. After then, the blood samples were centrifuged at 8,000 rpm, 4 °C for 10 min, and the supernatant was stored at −80 °C until analysis.
# Firstly, each tissue (such as liver, duodenum, jejunum, ileum, colon) was accurately weighed after sucking the water on tissue surface. Each tissue was put into an EP tube and then cut (3-5 times) by a scissor. After then, PBS (pH 7.4) and magnetic beads were added into EP tube, grind the tissue by a tissue grinder. The tissue grinding fluid was centrifuged at 9,000 g, 4 °C for 20 min. 50 μl tissue supernatant was diluted by adding 250 μl LC grade acetonitrile. The protein was precipitated by centrifuging at 20,000 ×g, 4 °C for 30 min and the supernatant was collected to determine the protein concentration by a BCA Protein Quantification Kit. After then, the concentrations of seven PTAs were determined by using UHPLC-Q-Orbitrap HRMS analysis.
# [5] = Pharmacokinetic interaction between Styrax and midazolam (i.v. and i.g.) in rats; settings: for AUC(0-inf) / Cmax / half-life: male, Sprague-Dawley, rat, plasma; for half-life: t1/2, rats
# [6] = iv, 5 mg/kg, rats, midazolam i.v. 5 mg/kg, pretreated with Soybean oil
# [7] = iv, 5 mg/kg, rats, midazolam i.v. 5 mg/kg, pretreated with Styrax i.g. 100 mg/kg
# [8] = po, 20 mg/kg, rats, midazolam i.g. 20 mg/kg, pretreated with Soybean oil
# [9] = po, 20 mg/kg, rats, midazolam i.g. 20 mg/kg, pretreated with Styrax i.g. 100 mg/kg
# [10] = rats, midazolam i.g. 20 mg/kg, Styrax + midazolam vs Soybean oil + midazolam (fold)
# [11] = rats, midazolam i.v. 5 mg/kg, Styrax + midazolam vs Soybean oil + midazolam
# CYP3A, sequence (P08684 2-503): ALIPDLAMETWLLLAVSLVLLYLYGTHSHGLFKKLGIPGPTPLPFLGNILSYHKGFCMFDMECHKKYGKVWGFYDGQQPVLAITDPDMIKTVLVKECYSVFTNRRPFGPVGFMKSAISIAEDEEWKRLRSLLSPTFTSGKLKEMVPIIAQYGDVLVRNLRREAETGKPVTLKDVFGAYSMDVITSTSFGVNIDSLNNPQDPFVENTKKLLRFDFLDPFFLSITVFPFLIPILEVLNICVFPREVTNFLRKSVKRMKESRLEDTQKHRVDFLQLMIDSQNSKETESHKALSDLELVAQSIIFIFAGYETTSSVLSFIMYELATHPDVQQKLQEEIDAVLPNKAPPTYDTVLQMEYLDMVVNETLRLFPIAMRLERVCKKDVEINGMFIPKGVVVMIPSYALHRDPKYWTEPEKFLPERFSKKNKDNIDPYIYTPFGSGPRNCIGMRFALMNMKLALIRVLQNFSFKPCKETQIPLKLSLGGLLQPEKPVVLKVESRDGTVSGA
SMILES,IC50 [3],"IC50 at 30 min ([1]; microsomes, pH 7.4)",exposure in rat plasma and rat liver [4],"Stability, 4 ℃ Refrigerator (3 day, %) ([2]; nominal level 3.28 nmol/L)","Stability, -20℃ freeze-thaw (3 times, %) ([2]; nominal level 3.28 nmol/L)","Stability, Room temperature (24 h, %) ([2]; nominal level 3.28 nmol/L)","Stability, 4 ℃ Refrigerator (3 day, %) ([2]; nominal level 20.48 nmol/L)","Stability, -20℃ freeze-thaw (3 times, %) ([2]; nominal level 20.48 nmol/L)","Stability, Room temperature (24 h, %) ([2]; nominal level 20.48 nmol/L)","Stability, 4 ℃ Refrigerator (3 day, %) ([2]; nominal level 128.00 nmol/L)","Stability, -20℃ freeze-thaw (3 times, %) ([2]; nominal level 128.00 nmol/L)","Stability, Room temperature (24 h, %) ([2]; nominal level 128.00 nmol/L)",further results
C[C@H]1[C@H](C)CC[C@]2(C(=O)O)CC[C@]3(C)C(=CC[C@@H]4[C@@]5(C)C[C@@H](O)[C@H](O)C(C)(C)[C@@H]5CC[C@]43C)[C@H]12 [corosolic acid],41.9 ± 11.7 µM,,,,,,,,,,,,"IC50 at 30 min ([1]; human liver microsomes, pH 7.4, probe midazolam (1′-hydroxylation), midazolam 1′-hydroxylation, HLMs, read-out: IC50): 32.2 ± 5.63 µM; Stability, 4 ℃ Refrigerator (3 day, %) ([2]; nominal level 8.19 nmol/L): 105.13%; Stability, -20℃ freeze-thaw (3 times, %) ([2]; nominal level 8.19 nmol/L): 104.46%; Stability, Room temperature (24 h, %) ([2]; nominal level 8.19 nmol/L): 99.78%; Stability, 4 ℃ Refrigerator (3 day, %) ([2]; nominal level 51.20 nmol/L): 104.14%; Stability, -20℃ freeze-thaw (3 times, %) ([2]; nominal level 51.20 nmol/L): 100.45%; Stability, Room temperature (24 h, %) ([2]; nominal level 51.20 nmol/L): 99.91%; Stability, 4 ℃ Refrigerator (3 day, %) ([2]; nominal level 320.00 nmol/L): 97.82%; Stability, -20℃ freeze-thaw (3 times, %) ([2]; nominal level 320.00 nmol/L): 98.31%; Stability, Room temperature (24 h, %) ([2]; nominal level 320.00 nmol/L): 96.69%"
CC1(C)CC[C@]2(C(=O)O)CC[C@]3(C)C(=CC[C@@H]4[C@@]5(C)CC[C@H](O)C(C)(C)[C@@H]5CC[C@]43C)[C@@H]2C1 [oleanolic acid],,14.8 ± 2.34 µM,very low exposure levels,105.69%,103.79%,103.28%,102.19%,105.51%,99.64%,104.96%,105.16%,99.00%,
C=C(C)[C@@H]1CC[C@]2(C(=O)O)CC[C@]3(C)[C@H](CC[C@@H]4[C@@]5(C)CC[C@@H](O)C(C)(C)[C@@H]5CC[C@]43C)[C@@H]12 [epibetulinic acid],0.47 ± 0.08 µM,0.64 ± 0.1 µM,very low exposure levels,113.34%,109.83%,104.88%,105.44%,106.94%,96.59%,107.19%,110.52%,106.30%,
CC1(C)CC[C@]2(C(=O)O)CC[C@]3(C)C(=CC[C@@H]4[C@@]5(C)CCC(=O)C(C)(C)[C@@H]5CC[C@]43C)[C@@H]2C1 [oleanonic acid],0.8 ± 0.06 µM,0.99 ± 0.09 µM,very low exposure levels,85.84%,91.69%,86.92%,103.95%,109.44%,101.86%,100.64%,113.69%,98.85%,local exposure to rat jejunum ([4]; 1 h after single oral dose of Styrax (100 mg/kg)): 745.69 nM/mg tissue protein
C=C(C)[C@@H]1CC[C@]2(C(=O)O)CC[C@]3(C)[C@H](CC[C@@H]4[C@@]5(C)CCC(=O)C(C)(C)[C@@H]5CC[C@]43C)[C@@H]12 [betulonic acid],,,,,,,,,,,,,"IC50 ([1]; midazolam 1′-hydroxylation, HLMs): 2.51 ± 0.34 µM; IC50 ([3]; NEN 4-hydroxylation, HLMs): 0.96 ± 0.14 µM"
C=C(C)[C@@H]1CC[C@]2(C(=O)O)CC[C@]3(C)[C@H](CC[C@@H]4[C@@]5(C)CC[C@H](O)C(C)(C)[C@@H]5CC[C@]43C)[C@@H]12 [betulinic acid],4.11 ± 0.8 µM,7.74 ± 0.95 µM,could not be detected,100.20%,104.81%,98.14%,102.78%,99.04%,102.89%,102.12%,110.33%,103.89%,
Cc1ncc2n1-c1ccc(Cl)cc1C(c1ccccc1F)=NC2 [midazolam],,,,,,,,,,,,,"AUC(0-inf) [5, 6]: 1320 ± 130 ng·h/mL; AUC(0-inf) [5, 7]: 1200 ± 114 ng·h/mL; Cmax [5, 6]: 3260 ± 708 ng/mL; Cmax [5, 7]: 3370 ± 570 ng/mL; half-life ([5]; iv, 5 mg/kg, midazolam i.v. 5 mg/kg, pretreated with Styrax i.g. 100 mg/kg): 0.52 ± 0.14 h; AUC(0-inf) [5, 8]: 211 ± 87.2 ng·h/mL; AUC(0-inf) [5, 9]: 431 ± 217 ng·h/mL; Cmax [5, 8]: 129 ± 111 ng/mL; Cmax [5, 9]: 294 ± 277 ng/mL; half-life ([5]; po, 20 mg/kg, midazolam i.g. 20 mg/kg, pretreated with Soybean oil): 2.14 ± 0.28 h; half-life ([5]; po, 20 mg/kg, midazolam i.g. 20 mg/kg, pretreated with Styrax i.g. 100 mg/kg): 4.52 ± 3.96 h; Tmax Ratio ([5]; rats, midazolam i.g. 20 mg/kg, Styrax + midazolam vs Soybean oil + midazolam): 1.00; AUC(0-inf) Ratio [5, 10]: 2.04; Cmax Ratio [5, 10]: 2.28; t1/2 Ratio [5, 10]: 2.11; AUC(0-inf) Ratio [5, 11]: 0.91; Cmax Ratio [5, 11]: 1.03; Tmax Ratio [5, 11]: 1.00; t1/2 Ratio [5, 11]: 0.59; t1/2 ([5]; rats, midazolam i.v. 5 mg/kg, pretreated with Soybean oil): 0.88 ± 0.28 h"
CC1(C)CC[C@]2(C(=O)O)CC[C@]3(C)C(=CC[C@@H]4[C@@]5(C)C[C@@H](O)[C@H](O)C(C)(C)[C@@H]5CC[C@]43C)[C@@H]2C1 [maslinic acid],3.44 ± 0.77 µM,19.4 ± 3.04 µM,could not be detected,,,,,,,,,,"Stability, 4 ℃ Refrigerator (3 day, %) ([2]; nominal level 8.19 nmol/L): 101.20%; Stability, -20℃ freeze-thaw (3 times, %) ([2]; nominal level 8.19 nmol/L): 100.54%; Stability, Room temperature (24 h, %) ([2]; nominal level 8.19 nmol/L): 95.84%; Stability, 4 ℃ Refrigerator (3 day, %) ([2]; nominal level 51.20 nmol/L): 103.76%; Stability, -20℃ freeze-thaw (3 times, %) ([2]; nominal level 51.20 nmol/L): 100.05%; Stability, Room temperature (24 h, %) ([2]; nominal level 51.20 nmol/L): 99.51%; Stability, 4 ℃ Refrigerator (3 day, %) ([2]; nominal level 320.00 nmol/L): 97.98%; Stability, -20℃ freeze-thaw (3 times, %) ([2]; nominal level 320.00 nmol/L): 98.47%; Stability, Room temperature (24 h, %) ([2]; nominal level 320.00 nmol/L): 96.85%"
